Data on four molecules can be found in US11274099B2 (Superb Wisdom Limited, priority 2017, dated 2022).

This series in a line: Pharmacokinetic analysis in male SD rats after IV bolus, plasma by LC-MS/MS. The format is in vivo. The note with it: rat, IV bolus 0.04 mg/kg; for Cmax / half-life: 3 rats per group; for half-life: read-out: T1/2, ± SD (converted); for MRT inf: read-out: MRT0-Inf (Mean Residence Time); for MRT last: read-out: MRT0-last (Mean Residence Time); for Vd: read-out: Vdss (apparent volume of distribution at equilibrium); for AUC(0-t): time zero to last measurable concentration; for AUC(0-inf): zero up to ∞. The procedure:
Each of the tested compounds was administered as an IV bolus (3 rats per group) at a dose 0.04 mg/kg. Rats were fasted at least 12 hours prior to administration of test compound. […] Blood samples were processed for plasma and analyzed by LC-MS/MS for the following pharmacokinetic parameters: Cmax, T1/2, CL, Vdss, AUC0-last, AUC0-∞, MRT0-last, and MRT0-∞.

For `[2H]C([2H])([2H])C([2H])([2H])OCc1nc2c(N)nc3ccccc3c2n1CC(C)(C)O` [Compound 107, 1-(4-amino-2-((ethoxy-d5)methyl)-1H-imidazo[4,5-c]quinolin-1-yl)-2-methylpropan-2-ol], the Cmax (usually the highest concentration seen after dosing) was 40.1 ± 8.82 ng/mL, the half-life is 2.41 ± 1.71 h, the MRT inf was determined as 2.43 ± 0.735 h and the MRT last came to 1.66 ± 0.151 h. Moreover, the Vd worked out at 3.23 ± 0.581 L/kg, the AUC(0-t) (commonly the area under the concentration-time curve up to a stated or last time point) is 54.8 ± 6.02 ng·h/mL and the AUC(0-inf) (commonly the area under the concentration-time curve extrapolated to infinity) is 59.4 ± 8.16 ng·h/mL.

Regarding `[2H]C([2H])([2H])C(O)(Cn1c(COCC)nc2c(N)nc3ccccc3c21)C([2H])([2H])[2H]` [Compound 104, 2-((4-amino-2-(ethoxymethyl)-1H-imidazo[4,5-c]quinolin-1-yl)methyl)propan-1,1,1,3,3,3-d6-2-ol], the Cmax was 40.3 ± 10.7 ng/mL, the half-life was 1.85 ± 1.05 h, the MRT inf was found to be 2.1 ± 0.663 h and the MRT last came to 1.5 ± 0.328 h. In addition, the Vd stood at 2.62 ± 0.516 L/kg, the exposure AUC(0-t) stood at 56.2 ± 6.51 ng·h/mL and the AUC(0-inf) amounted to 60.4 ± 7.71 ng·h/mL.

For `CCOCc1nc2c(N)nc3ccccc3c2n1CC(C)(C)O` [Resiquimod, 1-(4-Amino-2-(ethoxymethyl)-1H-imidazo[4,5-c]quinolin-1-yl)-2-methylpropan-2-ol, reference compound], the Cmax worked out at 43.8 ± 10.9 ng/mL, the half-life is 1.03 ± 1.72 h, the MRT inf was 1.37 ± 0.139 h and the MRT last turned out to be 1.09 ± 0.081 h. In addition, the Vd is 2.46 ± 0.361 L/kg, the AUC(0-t) was determined as 42.1 ± 6.04 ng·h/mL and the AUC(0-inf) came out at 45.9 ± 6.67 ng·h/mL.

For the molecule `[2H]C([2H])([2H])C(O)(C([2H])([2H])[2H])C([2H])([2H])n1c(COCC)nc2c(N)nc3ccccc3c21` [Compound 113, 1-(4-amino-2-(ethoxymethyl)-1H-imidazo[4,5-c]quinolin-1-yl)-2-(methyl-d3)propan-1,1,3,3,3-d5-2-ol], the Cmax was determined as 44.5 ± 14.2 ng/mL, the half-life was 1.97 ± 1.76 h, the MRT inf is 1.79 ± 0.884 h and the MRT last was 1.26 h. Besides, the Vd amounted to 2.61 ± 0.732 L/kg, the AUC(0-t) was found to be 49.3 ± 8.99 ng·h/mL and the AUC(0-inf) was determined as 53 ± 11.2 ng·h/mL.
